According to publication PMC9045296, “Development of Antifungal Peptides against Cryptococcus neoformans; Leveraging Knowledge about the cdc50Δ Mutant Susceptibility for Lead Compound Development” (Microbiology Spectrum, 2022):
Values after ≈ are worked out from the molar mass of the structure shown. Residues, ends and D or L forms follow the SMILES beside them. *: point of attachment. Palmitoyl = CCCCCCCCCCCCCCCC(=O)*; Myristoyl = CCCCCCCCCCCCCC(=O)*; Decanoyl = CCCCCCCCCC(=O)*; Hexanoyl = CCCCCC(=O)*

Assays:
Assay type in all cases: cell-based, Cryptococcus neoformans
[1] = system: C. neoformans wild-type strain H99; assay: microbe, parasite or virus in culture; details: for MIC H99: Table S1, drug alone, wild type H99; for MIC: drug alone, H99 wild type, CLSI broth microdilution, RPMI, 2.5*10^3 cells/mL, 37°C, read at 24 and 48 h
Protocol: (§1) Our assays followed standard CLSI protocol for broth microdilution assays using yeasts ([32]). Microbes were passaged in YPD media at 37°C with mixing for 2 days before harvesting with an inoculation loop to prepare monocultures on Sabouraud Dextrose Agar (SDA) plates. Monocultures on SDA plates were incubated for 2 days at 37°C before harvesting cells for microdilution assays. RPMI media (100 μL) was charged to each of the 96 wells in a 96-well plate, with an additional 100 μL in the first column. Peptide-DMSO solution (4 μL) at 12.8 mg/mL was charged to each of the wells in the first column. The 100 μL was serially diluted by a factor of 2 from the first column to the 11th column. Microbe inoculant was then prepared. An inoculation loop was used to transfer 1–3 colonies of cells to 1 mL phosphate buffer solution (PBS). The PBS and microbe solution was made uniform by vortex mixing. Cell concentration was computed by comparing the absorbance at 530 nm to 1x McFarland standard solution and multiplying the resulting ratio by 10^7 cell/mL conversion factor. Plate inoculant was prepared by diluting the PBS microbe solution to 5000 cell/mL, in RPMI media. A 100 μL aliquot of cells was transferred to each of the wells on the plate other than column 11 for the no growth control. The operating volume was 200 μL, with 500 CFU per well for a final concentration of 2.5*10^3 cells/mL. Inoculated plates were incubated for 48 h at 37°C and read at 24 and 48 h ([33]).

[2] = system: ΔCDC50 mutant strain; details: for FIC ΔCDC50 Caspofungin: Table S1, concentration of caspofungin in combination with the peptide; for FIC ΔCDC50 Peptide: Table S1, concentration of peptide in combination with caspofungin
Protocol: (§2) Again, 200 μL was the operating volume, 500CFU per well, 2.5*10^3 cell/mL. Plates were incubated for 48 h at 37°C and read thereafter. The Fractional Inhibitory Concentration Index were calculated in Equation 1: FICIndex=FICA/MICA+FICB/MICB

[3] = system: C. neoformans H99; details: for FIC H99 Caspofungin: Table S1, concentration of caspofungin in combination with the peptide; for FIC H99 Peptide: Table S1, concentration of peptide in combination with caspofungin
Protocol: as §2

[4] = system: exofacial PS on C. neoformans cells; assay: AF350-annexin V flow cytometry assay; details: 0.128 mg/mL peptide, 5*10^6 cell/mL, 20 min at 25°C, triplicate; control 0.2 ± 0.1%
Text: We sought to determine whether the activities of the peptides were related to the lipid-flipping activity of the P4-ATPase. […] The intensity of the AF350-annexin V signal corresponds to concentration of PS on the exofacial side of the membrane. The propidium iodine signal corresponds to cell viability. […] Single cells were first selected and gated based on morphology to ensure homogeneity among the cell population (4A, 4B). We examined cells with low propidium iodine intensity (PI-A < 9 RU) and high AF350-annexin V intensity (Annexin V-A > 9 RU) (4C, 4D). Under these gating parameters there should be, respectively, low nonspecific cell death and high exofacial PS.
Stock microbes were defrosted from the –80°C freezer and were passed twice for 48 h each in YPD media. The YPD media was removed by spinning down and the supernatant was decanted. Pelletized cells were resuspended in 1 mL PBS media and washed for 5 min with incubation at 25°C and 250 RPM. Washed cells were spun down again and suspended in 1 mL of PBS solution. cells were diluted 20-fold into 1 mL fungal working solution in an eppendorf. Cell concentration was quantified via comparison to 1X McFarlain’s standard on a plate reader using the absorbance value at 530 nm. An aliquot of 1*10^6 cells in 100 μL was created (1*10^7cell/mL). A 100 μL aliquot of peptide working solution at 0.256 mg/mL was added to the cell suspension for final operating parameters of 200 μL, 0.128 mg/mL peptide, and 5*10^6cell/mL. The cells were incubated for 20 min at 25°C and 250RPM. Baseline and experimental samples were prepared in triplicate. Cells were stained using an operating concentration of 0.001 mg/mL Propidium Iodine (PI) and a 40-fold dilution of Alexa Fluor 350 labeled annexin V as per manufactures instructions. After staining the cells, samples were spun down and supernatant decanted. Cells were then fixed in 4% formaldehyde for 5 min. Fixed cells were spun down and supernatant decanted and resuspended in 400 μL 1% formaldehyde for flowcytometry. Samples were collected at a slow flow rate on a MACS Quant 10 device (Miltenyi Biotech, Auburn, CA) with 50,000 events collected per injection.

[5] = system: cdc50Δ mutant strain; details: Table S1, drug alone
Protocol: as §1

| Compound | MIC H99 [1] | FIC ΔCDC50 Caspofungin [2] | FIC ΔCDC50 Peptide [2] | FIC H99 Caspofungin ([3]; H99) | FIC H99 Peptide ([3]; H99) | further results |
| --- | --- | --- | --- | --- | --- | --- |
| H-YVDGFPNLREDEHFQ-OH [QY15] | > 128 µg/mL | 1 µg/mL | 0.5 µg/mL | 8 µg/mL | 0.5 µg/mL | – |
| CCCCCCCCCCCCCC(=O)N[C@@H](Cc1c[nH]c2ccccc12)C(=O)NCC(=O)NCC(=O)N[C@H](C(=O)N[C@@H](C)C(=O)N[C@@H](CCCCN)C(=O)N[C@@H](CC(N)=O)C(=O)N[C@@H](Cc1ccc(O)cc1)C(=O)N[C@@H](C)C(=O)O)[C@@H](C)CC [Peptide K5A-Ma] (Myristoyl-WGGIAKNYA-OH) | – | – | – | – | – | MIC [1]: >128 µg/mL; percentage of cells with low propidium iodine (PI-A < 9 RU) and high AF350-annexin V intensity (Annexin V-A > 9 RU) [4]: 5.6 ± 0.1% |
| CCCCCCCCCCCCCC(=O)N[C@@H](Cc1c[nH]c2ccccc12)C(=O)NCC(=O)NCC(=O)N[C@H](C(=O)N[C@@H](C)C(=O)N[C@@H](C)C(=O)N[C@@H](CC(N)=O)C(=O)N[C@@H](Cc1ccc(O)cc1)C(=O)N[C@@H](C)C(=O)O)[C@@H](C)CC [K5A;K6A-Ma] (Myristoyl-WGGIAANYA-OH) | – | – | – | – | – | MIC [1]: >128 µg/mL; percentage of cells with low propidium iodine (PI-A < 9 RU) and high AF350-annexin V intensity (Annexin V-A > 9 RU) [4]: 1.3 ± 0.9% |
| CCCCCCCCCCCCCC(=O)N[C@@H](CO)C(=O)N[C@@H](CCC(=O)O)C(=O)N[C@@H](CO)C(=O)NCC(=O)N[C@H](C(=O)N[C@@H](C)C(=O)N[C@@H](Cc1c[nH]c2ccccc12)C(=O)NCC(=O)NCC(=O)O)[C@@H](C)CC [GS9-Ma] (Myristoyl-SESGIAWGG-OH) | > 128 µg/mL | – | – | – | – | MIC ΔCDC50 [5]: > 128 µg/mL |
| H-SESGIAWGGIKKNYA-OH [AS15] | > 128 µg/mL | 1 µg/mL | 0.5 µg/mL | 8 µg/mL | 0.5 µg/mL | – |
| CCCCCCCCCCCCCCCC(=O)N[C@@H](CO)C(=O)N[C@@H](CCC(=O)O)C(=O)N[C@@H](CO)C(=O)NCC(=O)N[C@H](C(=O)N[C@@H](C)C(=O)N[C@@H](Cc1c[nH]c2ccccc12)C(=O)NCC(=O)NCC(=O)N[C@H](C(=O)N[C@@H](CCCCN)C(=O)N[C@@H](CCCCN)C(=O)N[C@@H](CC(N)=O)C(=O)N[C@@H](Cc1ccc(O)cc1)C(=O)N[C@@H](C)C(=O)O)[C@@H](C)CC)[C@@H](C)CC [AS15-Pa] (Palmitoyl-SESGIAWGGIKKNYA-OH) | > 128 µg/mL | 2 µg/mL | 2 µg/mL | 8 µg/mL | 0.5 µg/mL | – |
| CCCCCC(=O)N[C@@H](CO)C(=O)N[C@@H](CCC(=O)O)C(=O)N[C@@H](CO)C(=O)NCC(=O)N[C@H](C(=O)N[C@@H](C)C(=O)N[C@@H](Cc1c[nH]c2ccccc12)C(=O)NCC(=O)NCC(=O)N[C@H](C(=O)N[C@@H](CCCCN)C(=O)N[C@@H](CCCCN)C(=O)N[C@@H](CC(N)=O)C(=O)N[C@@H](Cc1ccc(O)cc1)C(=O)N[C@@H](C)C(=O)O)[C@@H](C)CC)[C@@H](C)CC [AS15-Ha] (Hexanoyl-SESGIAWGGIKKNYA-OH) | > 128 µg/mL | – | – | – | – | – |
| CCCCCCCCCCCCCCCC(=O)N[C@@H](Cc1c[nH]c2ccccc12)C(=O)NCC(=O)NCC(=O)N[C@H](C(=O)N[C@@H](CCCCN)C(=O)N[C@@H](CCCCN)C(=O)N[C@@H](CC(N)=O)C(=O)N[C@@H](Cc1ccc(O)cc1)C(=O)N[C@@H](C)C(=O)O)[C@@H](C)CC [AW9-Pa] (Palmitoyl-WGGIKKNYA-OH) | > 128 µg/mL | 2 µg/mL | 1 µg/mL | 8 µg/mL | 0.5 µg/mL | FIC Index ΔCDC50 ([2]; Table S1, caspofungin + peptide): 0.75; MIC of caspofungin in the presence of 0.5 μg/mL peptide ([3]; H99, checkerboard, caspofungin alone 16 μg/mL): 8 µg/mL; FIC Index H99 ([3]; Table S1, caspofungin + peptide, H99): 0.5-1; MIC ΔCDC50 [5]: 8 µg/mL (≈ 6.28 µM) |
| CCCCCCCCCC(=O)N[C@@H](CO)C(=O)N[C@@H](CCC(=O)O)C(=O)N[C@@H](CO)C(=O)NCC(=O)N[C@H](C(=O)N[C@@H](C)C(=O)N[C@@H](Cc1c[nH]c2ccccc12)C(=O)NCC(=O)NCC(=O)N[C@H](C(=O)N[C@@H](CCCCN)C(=O)N[C@@H](CCCCN)C(=O)N[C@@H](CC(N)=O)C(=O)N[C@@H](Cc1ccc(O)cc1)C(=O)N[C@@H](C)C(=O)O)[C@@H](C)CC)[C@@H](C)CC [AS15-Da] (Decanoyl-SESGIAWGGIKKNYA-OH) | > 128 µg/mL | – | – | – | – | – |
| CCCCCCCCCCCCCC(=O)N[C@@H](CO)C(=O)NCC(=O)N[C@H](C(=O)N[C@@H](C)C(=O)N[C@@H](Cc1c[nH]c2ccccc12)C(=O)NCC(=O)NCC(=O)N[C@H](C(=O)N[C@@H](CCCCN)C(=O)O)[C@@H](C)CC)[C@@H](C)CC [KS9-Ma] (Myristoyl-SGIAWGGIK-OH) | > 128 µg/mL | – | – | – | – | – |
| CCCCCCCCCCCCCC(=O)N[C@@H](Cc1c[nH]c2ccccc12)C(=O)NCC(=O)NCC(=O)N[C@H](C(=O)N[C@@H](CCCCN)C(=O)N[C@@H](C)C(=O)N[C@@H](CC(N)=O)C(=O)N[C@@H](Cc1ccc(O)cc1)C(=O)N[C@@H](C)C(=O)O)[C@@H](C)CC [Peptide K6A-Ma] (Myristoyl-WGGIKANYA-OH) | – | – | – | – | – | MIC [1]: >128 µg/mL |
| CCCCCCCCCCCCCC(=O)N[C@@H](Cc1ccc(O)cc1)C(=O)N[C@H](C(=O)N[C@@H](CC(=O)O)C(=O)NCC(=O)N[C@@H](Cc1ccccc1)C(=O)N1CCC[C@H]1C(=O)N[C@@H](CC(N)=O)C(=O)N[C@@H](CC(C)C)C(=O)N[C@@H](CCCNC(=N)N)C(=O)N[C@@H](CCC(=O)O)C(=O)N[C@@H](CC(=O)O)C(=O)N[C@@H](CCC(=O)O)C(=O)N[C@@H](Cc1c[nH]cn1)C(=O)N[C@@H](Cc1ccccc1)C(=O)N[C@@H](CCC(N)=O)C(=O)O)C(C)C [QY15-Ma] (Myristoyl-YVDGFPNLREDEHFQ-OH) | > 128 µg/mL | 1 µg/mL | 0.5 µg/mL | 8 µg/mL | 0.5 µg/mL | – |
